Assay [1] deals with LNCaP cells. As to the kind of experiment: LNCaP proliferation assay (CellTiter-Glo). It counts as cell-based. Particulars: Homo sapiens, Table 1, cell viability after 168 h. How it is done:
LNCaP cells from ATCC, were seeded in 96 well plate format (typically 2500 cells/well) in their growth media (RPMI, Life Technologies #52400-025+10% Fetal Calf Serum, Life Technologies #10500-064) and treated after 24 h with increasing concentration of compound from 0 to 30 μM. Cell viability was assessed after 168 h by CellTiter-Glo® as recommended by the manufacturer's instructions (Promega). Analysis and EC50 values were derived using GraphPadPrism.
(In general: Cellular ATP, detected with luciferase, serves as a proxy for viable cell number.)

In assay [2] the target is USP7 (Homo sapiens (Human), UniProt Q93009). As to the kind of experiment: USP7 fluorescence polarisation (FP) biochemical assay, ubiquitin-Lys-TAMRA substrate. In a few lines:
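Full-length His6-USP7 (2.5 nM) incubated ± inhibitor (8-point dilutions, 200 to 0.1 μM before addition) in 50 mM HEPES pH 7.2, 150 mM NaCl, 0.5 mM EDTA, 5 mM DTT, 0.05% BSA, 0.05% CHAPS. Ubiquitin-Lys-TAMRA cleavage followed by FP (ex 530/em 575 nm) every 15 min for 1.5 h; normalised to no-compound control.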
In general terms: In fluorescence polarisation assays a small probe gives low polarisation when free and higher when bound to something large.

The mark [3] stands for this setting: Table 1, R9a = H versus R9a = Cl, read-out: USP7 IC50.
Setting [4] is: Table 4, biochemical assay, average of at least duplicate experiments, read-out: USP7 IC50.

Read-outs that look alike come from different tables or passages of the source.

EC50 and IC50 data for ten molecules are collected here from patent US10766903B2 (ALMAC DISCOVERY LIMITED, priority 2016, dated 2020).

Chain of USP7 (Q93009 whole entry): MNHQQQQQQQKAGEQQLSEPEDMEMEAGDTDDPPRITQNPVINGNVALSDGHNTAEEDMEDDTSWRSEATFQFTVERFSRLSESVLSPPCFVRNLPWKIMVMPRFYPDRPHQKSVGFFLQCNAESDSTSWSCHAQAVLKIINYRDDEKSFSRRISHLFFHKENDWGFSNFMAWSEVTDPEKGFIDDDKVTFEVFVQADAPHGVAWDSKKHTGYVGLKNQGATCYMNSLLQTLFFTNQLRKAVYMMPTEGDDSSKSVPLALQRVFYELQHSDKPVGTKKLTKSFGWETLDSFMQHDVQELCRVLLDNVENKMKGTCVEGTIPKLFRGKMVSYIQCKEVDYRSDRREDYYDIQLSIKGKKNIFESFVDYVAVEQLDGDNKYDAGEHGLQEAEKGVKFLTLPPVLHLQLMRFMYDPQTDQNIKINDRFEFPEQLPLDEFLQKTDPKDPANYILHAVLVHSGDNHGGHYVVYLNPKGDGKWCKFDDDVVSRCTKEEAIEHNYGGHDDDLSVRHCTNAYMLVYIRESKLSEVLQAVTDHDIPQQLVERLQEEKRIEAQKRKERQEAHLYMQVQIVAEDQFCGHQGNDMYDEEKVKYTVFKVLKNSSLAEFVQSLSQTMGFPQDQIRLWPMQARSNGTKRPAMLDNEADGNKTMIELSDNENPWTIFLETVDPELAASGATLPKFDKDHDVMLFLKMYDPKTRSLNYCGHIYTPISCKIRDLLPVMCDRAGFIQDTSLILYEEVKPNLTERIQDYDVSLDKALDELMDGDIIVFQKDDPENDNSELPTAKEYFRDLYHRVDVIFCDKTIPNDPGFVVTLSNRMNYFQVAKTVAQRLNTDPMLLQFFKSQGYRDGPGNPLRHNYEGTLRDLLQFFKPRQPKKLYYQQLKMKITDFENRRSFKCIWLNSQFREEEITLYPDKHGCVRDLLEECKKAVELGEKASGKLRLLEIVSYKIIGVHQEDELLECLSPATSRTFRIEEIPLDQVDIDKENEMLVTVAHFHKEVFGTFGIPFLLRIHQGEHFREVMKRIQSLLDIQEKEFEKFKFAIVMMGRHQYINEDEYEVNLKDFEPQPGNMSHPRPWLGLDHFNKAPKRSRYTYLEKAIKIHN

In turn, `CC1(C(=O)N2CCC(O)(Cn3cnc4c(cc(Cl)n4-c4ccc5c(c4)OCO5)c3=O)CC2)CC1` [Example 202, 7-(Benzo[d][1,3]dioxol-5-yl)-6-chloro-3-((4-hydroxy-1-(1-methylcyclopropanecarbonyl)piperidin-4-yl)methyl)-3H-pyrrolo[2,3-d]pyrimidin-4(7H)-one] showed an EC50 in assay [1] of 51 nM. For the same molecule, the IC50 is 250 nM in assay [2] (setting [3]) and 250 to 999 nM in assay [2] (setting [4]).

Take `Cn1cc(-c2cccc(-n3c(Cl)cc4c(=O)n(CC5(O)CCN(C(=O)C6(C)CC6)CC5)cnc43)c2)cn1` [Example 212, 6-Chloro-3-((4-hydroxy-1-(1-methylcyclopropanecarbonyl)piperidin-4-yl)methyl)-7-(3-(1-methyl-1H-pyrazol-4-yl)phenyl)-3H-pyrrolo[2,3-d]pyrimidin-4(7H)-one]: in assay [1], the EC50 stood at 55 nM. Moreover, the IC50 in assay [2] (setting [3]) was 140 nM; in assay [2] (setting [4]) it was under 250 nM.

Consider `CC1(C(=O)N2CCC(O)(Cn3cnc4c(cc(Cl)n4-c4ccc(Cl)cc4)c3=O)CC2)CC1` [Example 203, 6-Chloro-7-(4-chlorophenyl)-3-((4-hydroxy-1-(1-methylcyclopropanecarbonyl)piperidin-4-yl)methyl)-3H-pyrrolo[2,3-d]pyrimidin-4(7H)-one], for which, in assay [1], the EC50 was found to be 22 nM. In addition, the values for the concentration for half-maximal inhibition (IC50) in assay [2] (setting [3]) and in assay [2] (setting [4]) were 220 nM and under 250 nM, respectively.

As to `C[C@H](CC(=O)N1CCC(O)(Cn2cnc(N3CCC4(CC3)COC4)cc2=O)CC1)c1ccccc1` [Example 175, (R)-3-((4-hydroxy-1-(3-phenylbutanoyl)piperidin-4-yl)methyl)-6-(2-oxa-7-azaspiro[3.5]nonan-7-yl)pyrimidin-4(3H)-one], the IC50 in assay [2] (setting [4]) lay within 1000 to 200000 nM.

On to `Cc1nc2c(=O)n(CC3(O)CCN(C(=O)c4cnc(C5CC5)o4)CC3)cnc2n1-c1ccccc1` [Example 195, 1-((1-(2-Cyclopropyloxazole-5-carbonyl)-4-hydroxypiperidin-4-yl)methyl)-8-methyl-9-phenyl-1H-purin-6(9H)-one], for which, in assay [2] (setting [4]), the IC50 was in the range of 1000 to 200000 nM.

Regarding `O=C(c1cnc(C2CC2)o1)N1CCC(O)(Cn2cnc3c(nnn3-c3ccccc3)c2=O)CC1` [Example 198, 6-((1-(2-Cyclopropyloxazole-5-carbonyl)-4-hydroxypiperidin-4-yl)methyl)-3-phenyl-3H-[1,2,3]triazolo[4,5-d]pyrimidin-7(6H)-one], the IC50 in assay [2] (setting [4]) was in the range of 1000 to 200000 nM.

For `C=C(C)[C@@H](CC(=O)N1CCC(O)(Cn2cnc3c(-c4ccccc4)n(C)nc3c2=O)CC1)C(F)(F)F` [Example 36, (R)-6-((4-Hydroxy-1-(4-methyl-3-(trifluoromethyl)pent-4-enoyl)piperidin-4-yl)methyl)-2-methyl-3-phenyl-2H-pyrazolo[4,3-d]pyrimidin-7(6H)-one], the IC50 in assay [2] (setting [4]) was 1000 to 200000 nM.

For the molecule `C[C@H](CC(=O)N1CCC(O)(Cn2cnc(NCCN3CC[C@@H](F)C3)cc2=O)CC1)c1ccccc1` [Example 73, 6-((2-((R)-3-Fluoropyrrolidin-1-yl)ethyl)amino)-3-((4-hydroxy-1-((R)-3-phenylbutanoyl)piperidin-4-yl)methyl)pyrimidin-4(3H)-one, Formic Acid], the IC50 in assay [2] (USP7 IC50, Table 4, biochemical assay, average of at least duplicate experiments) fell in the range of 250 to 999 nM.

`C[C@H](CC(=O)N1CCC(O)(Cn2cnc3c(ncn3-c3ccc(CN)cc3)c2=O)CC1)c1ccccc1` [Example 68, (R)-9-(4-(Aminomethyl)phenyl)-1-((4-hydroxy-1-(3-phenylbutanoyl)piperidin-4-yl)methyl)-1H-purin-6(9H)-one]: the half-maximal inhibitory concentration (IC50) in assay [2] (setting [4]) is under 250 nM.

Consider `Cn1nccc1-c1cc(-n2c(Cl)cc3c(=O)n(CC4(O)CCN(C(=O)C5(C)CC5)CC4)cnc32)ccc1F` [Example 231, 6-Chloro-7-(4-fluoro-3-(1-methyl-1H-pyrazol-5-yl)phenyl)-3-((4-hydroxy-1-(1-methylcyclopropanecarbonyl)piperidin-4-yl)methyl)-3H-pyrrolo[2,3-d]pyrimidin-4(7H)-one], for which the IC50 in assay [2] (setting [4]) is 250 to 999 nM.

As a reminder, the EC50 is the concentration at which the effect is half-maximal. A lower EC50 goes with greater potency. Broadly, the IC50 is the concentration needed to halve the response being measured.
